Measurements taken from ChEMBL document CHEMBL3414421, “Structure-activity relationship studies and in vivo activity of guanidine-based sphingosine kinase inhibitors: discovery of SphK1- and SphK2-selective inhibitors” (J Med Chem, 2015).
Active and inactive are the calls of the source. The rule behind the calls is not given here.

Tests used:
Sphingosine kinase 2 = molecular target: T1, Sphingosine kinase 2 (Homo sapiens, UniProt Q9NRA0); assay: biochemical
T1 sequence (Q9NRA0 whole entry): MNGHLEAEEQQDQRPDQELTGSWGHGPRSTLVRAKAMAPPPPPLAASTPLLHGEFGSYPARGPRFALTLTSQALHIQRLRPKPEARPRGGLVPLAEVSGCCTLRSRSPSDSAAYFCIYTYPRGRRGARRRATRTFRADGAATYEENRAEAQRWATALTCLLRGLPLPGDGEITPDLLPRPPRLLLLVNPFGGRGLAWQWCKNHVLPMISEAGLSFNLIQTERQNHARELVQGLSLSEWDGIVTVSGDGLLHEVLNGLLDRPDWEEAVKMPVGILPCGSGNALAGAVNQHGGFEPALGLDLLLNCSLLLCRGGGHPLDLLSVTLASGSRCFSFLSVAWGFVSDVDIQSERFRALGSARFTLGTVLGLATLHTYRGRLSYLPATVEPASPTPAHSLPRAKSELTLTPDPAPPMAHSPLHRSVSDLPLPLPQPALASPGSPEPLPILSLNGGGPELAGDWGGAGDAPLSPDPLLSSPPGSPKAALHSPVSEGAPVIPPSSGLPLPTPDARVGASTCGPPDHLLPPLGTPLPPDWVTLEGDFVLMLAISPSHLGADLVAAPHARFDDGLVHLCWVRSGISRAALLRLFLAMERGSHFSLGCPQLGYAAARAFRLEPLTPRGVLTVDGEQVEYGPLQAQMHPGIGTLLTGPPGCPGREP
Description: Inhibition of human recombinant SphK2 expressed in Sf9 cells assessed as radiolabeled products using 10 uM sphingosine and 10 uM gamma[32P]ATP by liquid scintillation counting

[1] = molecular target: T2, Sphingosine kinase 2 (Homo sapiens) (UniProt Q9NRA0); assay: Inhibition of human recombinant SphK2 expressed in Sf9 cells assessed as enzyme activity measured as radiolabeled products using 10 uM sphingosine and 10 uM gamma[32P]ATP at 1 uM by liquid scintillation counting; design: scale not given: the % may be the effect or the level left
T2 sequence (whole entry): T1 sequence (Q9NRA0 whole entry)

[2] = Drug uptake in human U937 cells assessed as accumulation in cells at 100 nM to 1 uM after 2 hrs incubation by LC-MS-MS analysis; format: ADME, cell-based; conditions: u-937, 2 h, 0.1 µM
U-937 [3] = assay: Reduction in S1P level in human U937 cells at 100 nM to 1 uM after 2 hrs incubation by LC-MS-MS analysis; format: functional, cell-based
U-937 [4] = assay: Decrease in S1P level in human U937 cells at 100 nM after 2 hrs incubation by LC-MS-MS analysis
[5] = Cytotoxicity against human U937 cells assessed as cell viability up to 3 uM after 24 hrs by trypan blue dye assay; format: cell-based; conditions: u-937, 24 h
[6] = molecular target: T2, Sphingosine kinase 2 (Homo sapiens); conditions: U-937, 3 uM
Description: Inhibition of SphK2 in human U937 cells assessed as decrease in phosphorylated FTY720 substrate at 3 uM after 2 hrs incubation by LC-MS-MS analysis

Mus musculus [7] = assay: Increase in S1p level in C57BL6/j mouse blood at 10 mg/kg, ip up to 8 hrs by LC-MS-MS analysis relative to control; format: functional; conditions: route intraperitoneal
U-937 [8] = assay: Increase in sphingosine level in human U937 cells at 100 nM to 1 uM after 2 hrs incubation by LC-MS-MS analysis; format: functional, cell-based
Mus musculus [9] = assay: Increase in Sph level in C57BL6/j mouse blood at 10 mg/kg, ip up to 8 hrs by LC-MS-MS analysis relative to control; format: functional, organism-based; design: dose 10 mg/kg
in vivo = conditions: mouse, ip, 10 mg/kg
Description: Half life in mouse at 10 mg/kg, ip

[10] = Half life in rat; format: ADME, organism-based; conditions: in vivo

Row | Structure (SMILES) | Activity [1] [%] | other results
1 | CCCCCCCCc1ccc(-c2noc([C@@H]3C[C@@H](O)CN3C(=N)N)n2)cc1 | 70 | Ki (Sphingosine kinase 2): 5.2 µM
2 | Oc1ccc(Nc2nc(-c3ccc(Cl)cc3)cs2)cc1 |  | Ki (Sphingosine kinase 2): 50 µM
3 | CCCCCCCCCCc1ccc(NC(=O)[C@H]2CCCN2C(=N)N)cc1 | 100 | 
4 | CCCCCc1ccc(/C=C/[C@H](O)[C@@H](CO)NC)cc1 |  | Ki (Sphingosine kinase 2): > 100 µM
5 | CCCCCCCCc1ccc(-c2noc([C@@H]3C[C@H](O)CN3C(=N)N)n2)cc1 | 90 | 
6 | CCCCCCCCc1ccc(-c2noc([C@H](C)NC(=N)N)n2)cc1 | 94 | 
7 | CCCCCCCCc1ccc(-c2noc(C[C@@H]3CCCN3C(=N)N)n2)cc1.Cl |  | Drug uptake [2]: Active; inhibition (U-937 [3]): Active; Inhibition (U-937 [4]): 90%
8 | CCCCCCCCc1ccc(C(=O)NC[C@@H]2CCCN2C(=N)N)cc1 | 75 | 
9 | CCCCCCCCc1ccc(-c2noc([C@@H]3CCN3C(=N)N)n2)cc1.Cl | 56 | Ki (Sphingosine kinase 2): 1.2 µM; Activity [5]: Non-toxic; Drug uptake [2]: Active; inhibition [6]: Active; fold change (FC) (Mus musculus [7]): 2; Activity (U-937 [8]): Active; Activity (Mus musculus [9]): Active; inhibition (U-937 [3]): Active
10 | CCCCCCCCc1ccc(-c2noc([C@@H]3CCCN3C(=N)N)n2)cc1.Cl | 44 | Ki (Sphingosine kinase 2): 1.3 µM
11 | CCCCCCCCc1ccc(-c2noc([C@@H](NC(=N)N)C(C)C)n2)cc1 | 85 | 
12 | CCCCCCCCc1ccc(-c2nnc([C@@H]3CCCN3C(=N)N)o2)cc1 | 91 | 
13 | CCCCCCCCc1ccc(-c2noc(CNC(=N)N)n2)cc1 | 90 | 
14 | CCCCCCCCc1ccc(-c2nc([C@@H]3CCCN3C(=N)N)no2)cc1 | 42 | Ki (Sphingosine kinase 2): 1.1 µM
15 | CCCCCCCCc1ccc(-c2noc(CC[C@@H]3CCCN3C(=N)N)n2)cc1 | 100 | 
16 | CCCCCCCCCCc1ccc(NC(=O)[C@@H]2CCCN2C(=N)N)cc1 | 83 | 
17 | OC[C@H]1C[C@@H](O)CCN1CCc1ccc(Nc2nc(-c3ccc(C(F)(F)F)cc3)cs2)cc1 |  | half-life (in vivo): 6.5 h
18 | CCCCCCCCc1ccc(-c2noc([C@H](CO)NC(=N)N)n2)cc1 | 99 | 
19 | CCCCCCCCc1ccc(-c2noc(C3(NC(=N)N)CC3)n2)cc1 | 98 | 
20 | CCCCCCCCc1ccc(CC[C@](N)(CO)COC)cc1 |  | Ki (Sphingosine kinase 2): 16.5 µM
21 | CCCCCCCCc1ccc(CNC(=O)[C@@H]2CCCN2C(=N)N)cc1 | 95 | 
22 | C[C@@H](NC(=O)[C@H]1NCC[C@@H]1O)c1ccc(-c2noc(CCC3CCCC3)n2)cc1 |  | half-life [10]: 4.3 h
23 | CCCCCCCCc1ccc(-c2noc([C@@H]3[C@@H](O)CCN3C(=N)N)n2)cc1 | 65 | 
24 | CCCCCCCCc1ccc(-c2noc([C@@H]3CCCCN3C(=N)N)n2)cc1 | 92 | 
25 | CCCCCCCCc1ccc(-c2noc(CN(C)C(=N)N)n2)cc1 | 90 | 
26 | CCCCCCCCc1ccc(-c2noc(C3CN(C(=N)N)C3)n2)cc1 | 96 | 
27 | CCCCCCCCc1ccc(-c2noc([C@@H]3CCN(C(=N)N)C3)n2)cc1 | 95 | 
28 | CCCCCCCCc1ccc(-c2noc([C@H]3CCCN3C(=N)N)n2)cc1 | 90 | 
29 | CCCCCCCCc1ccc(-c2noc([C@@H]3C=CCN3C(=N)N)n2)cc1 | 96 | 
